Test results: patent publication US7829080B2, “Stabilization method of reduced coenzyme Q10” (Kaneka Corporation, priority 2006, dated 2010)

Legend:
[1] = Plasma total coenzyme Q after 14-day oral administration (Example 3); assay type: in vivo, Crj:CD (SD) rats; settings: male and female rats, 600 mg/kg oral in corn oil once a day for 14 days, 24 hr after final administration; compared to the reduced coenzyme Q10 administration group
Method: A first group was used as a control group, and corn oil (3 ml/kg) was orally administered once a day for 14 days. […] At 24 hr after the final administration, blood samples were collected to give plasma samples. Using HPLC, the concentration of coenzyme Q in the obtained plasma was measured. The results are shown in the bar graph of FIG. 1.

[2] = Oral absorbability test (Example 4); assay type: in vivo, Crj:CD (SD) rats; settings: male rats, 25 mg/ml soy bean oil solution at 4.0 ml/kg, 2 hr from administration
Method: Crj:CD (SD) rats (about 77-week-old, 10 male rats) were prepared. Reduced coenzyme Q10 was orally administered to 5 of them, and a mixture of reduced coenzyme Q10 and reduced coenzyme Q11 (containing 0.1% of reduced coenzyme Q11) was orally administered to the remaining 5 of them, each as a 25 mg/ml soy bean oil solution at a dose of 4.0 ml/kg. At 2 hr from the administration, blood was drawn and centrifuged to give plasma samples. Using HPLC, the concentration of coenzyme Q10 in the obtained plasma was measured. The results are shown in the bar graph of FIG. 2. As is clear from FIG. 2, the concentration of coenzyme Q10 in the plasma was about 3.4 μg/ml resulting from the administration of both reduced coenzyme Q10 and a mixture of reduced coenzyme Q10 and reduced coenzyme Q11.

concentration of total coenzyme Q in the plasma [1]	Structure (SMILES)	concentration of coenzyme Q10 in the plasma [2]
increased	COc1c(O)c(C)c(C/C=C(\C)CC/C=C(\C)CC/C=C(\C)CC/C=C(\C)CC/C=C(\C)CC/C=C(\C)CC/C=C(\C)CC/C=C(\C)CCC=C(C)C)c(O)c1OC [reduced coenzyme Q9]	–
–	COc1c(O)c(C)c(C/C=C(\C)CC/C=C(\C)CC/C=C(\C)CC/C=C(\C)CC/C=C(\C)CC/C=C(\C)CC/C=C(\C)CC/C=C(\C)CC/C=C(\C)CCC=C(C)C)c(O)c1OC [reduced coenzyme Q10]	about 3.4 μg/ml
